Laboratory results reported in patent publication EP0445023A1, “Vehicle for a therapeutically active agent for external use and antiseptic preparation comprising said vehicle” (INNOTHERA, priority 1990, dated 1991).

Assay: ex vivo transcutaneous passage
Assay type: in vitro ADME
Details: peau épilée ou rasée de rats, applied as the antiseptic preparation

O=C(Nc1ccc(Cl)cc1)Nc1ccc(Cl)c(Cl)c1 [principe actif, trichloro-3,4,4′ carbanilide]
passage transcutané du principe actif: n'ont pas permis de déceler un passage transcutané
